Drawing on ChEMBL document CHEMBL5505964, “HDAC/NAMPT dual inhibitors overcome initial drug-resistance in p53-null leukemia cells” (Eur J Med Chem, 2024), this text covers IC50, GI50 and CC50 for 20 compounds.

Molecules are shown by their SMILES.

One may read the IC50 as the concentration that inhibits the measured activity by half. A word on the GI50: it is the concentration at which growth is held to half of that of the control.

Assay [1] addresses T1, Nicotinamide phosphoribosyltransferase (Homo sapiens, UniProt P43490). As to the kind of experiment: Inhibition of NAMPT (unknown origin).
The test system of assay [2] is MV4-11. As to the kind of experiment: cells. It is filed as functional, cell-based. The conditions noted are these: Homo sapiens; for GI50: MV4-11, time 48 hrs; for IC50: MV4-11, 48 h.
Assay [3] deals with HL-60. As to the kind of experiment: Antiproliferative activity against p53-null human HL-60 cells assessed as inhibition of cell growth incubated for 48 hrs by resazurin dye based fluorescence analysis. It is filed as functional. For orientation: Alamar Blue is a resazurin reagent that responds to reducing activity.
Assay [4] concerns Kasumi 1. As to the kind of experiment: Antiproliferative activity against human Kasumi 1 cells harboring wild type p53 assessed as induction of cell death incubated for 48 hrs by resazurin dye based fluorescence analysis. The class given is functional. Particulars: read-out: LD50 (the source's name).
A short description of assay [5]: Antiproliferative activity against p53-null human PL-21 cells assessed as induction of cell death incubated for 48 hrs by resazurin dye based fluorescence analysis. The class given is functional. The conditions noted are these: read-out: LD50 (the source's name).
Assay [6] can be described thus: Antiproliferative activity against p53-null human MONO-MAC-1 cells assessed as induction of cell death incubated for 48 hrs by resazurin dye based fluorescence analysis. It is filed as functional. The conditions noted are these: read-out: LD50 (the source's name).
The subject of assay [7] is NB-4. Nature of the assay: Antiproliferative activity against p53-null human NB4 cells assessed as induction of cell death incubated for 48 hrs by resazurin dye based fluorescence analysis. The class given is functional. Particulars: read-out: LD50 (the source's name).
The subject of assay [8] is HL-60. Nature of the assay: Antiproliferative activity against p53-null human HL-60 cells assessed as induction of cell death incubated for 48 hrs in presence of N-(4-(1-benzoylpiperidin-4-yl)butyl)-3-(pyridin-3-yl)acrylamide by resazurin dye based fluorescence analysis. It is filed as functional. The conditions noted are these: read-out: LD50 (the source's name).
The test system of assay [9] is HL-60. Nature of the assay: Antiproliferative activity against p53-null human HL-60 cells assessed as induction of cell death incubated for 48 hrs in presence of methyl-4-((1H-pyrrolo[3,2-c]pyridine-2-carboxamido)methyl)benzoate by resazurin dye based fluorescence analysis. It is filed as functional. The conditions noted are these: read-out: LD50 (the source's name).

Assay [10] deals with Histone deacetylase 3/Nuclear receptor corepressor 2 (HDAC3/NCoR2) (Homo sapiens, UniProt O15379). Nature of the assay: Inhibition of C-terminal His-tagged human HDAC3 (1 to 428 residues)/N-terminal GST tagged human NCOR2 (395 to 489 residues) expressed in baculovirus-infected Sf9 cells using Boc-Lys-(acetyl)-AMC as substrate preincubated with enzyme for 1 hr followed by substrate addition and measured after 2 hrs by fluorescence analysis.

In assay [11] the target is T1, Nicotinamide phosphoribosyltransferase. Nature of the assay: Inhibition of N-terminal GST-tagged human recombinant NAMPT (2 to 491 residues) expressed in Escherichia coli expression system incubated for 30 mins by fluorescence based analysis.
For assay [12], the target named is Histone deacetylase 2 (Homo sapiens, UniProt Q92769). As to the kind of experiment: biochemical. It is filed as cell-based, Sf9.
The target of assay [13] is Histone deacetylase 1 (Homo sapiens, UniProt Q13547). As to the kind of experiment: Inhibition of C-terminal 6XHis-tagged/FLAG-tagged full length human recombinant HDAC1 (1 to 482 residues) expressed in baculovirus-infected Sf9 cells using Boc-Lys-(acetyl)-AMC as substrate preincubated with enzyme for 1 hr followed by substrate addition and measured after 2 hrs by fluorescence analysis.
Chain of Histone deacetylase 1 (Q13547 whole entry, the tested form may be a part): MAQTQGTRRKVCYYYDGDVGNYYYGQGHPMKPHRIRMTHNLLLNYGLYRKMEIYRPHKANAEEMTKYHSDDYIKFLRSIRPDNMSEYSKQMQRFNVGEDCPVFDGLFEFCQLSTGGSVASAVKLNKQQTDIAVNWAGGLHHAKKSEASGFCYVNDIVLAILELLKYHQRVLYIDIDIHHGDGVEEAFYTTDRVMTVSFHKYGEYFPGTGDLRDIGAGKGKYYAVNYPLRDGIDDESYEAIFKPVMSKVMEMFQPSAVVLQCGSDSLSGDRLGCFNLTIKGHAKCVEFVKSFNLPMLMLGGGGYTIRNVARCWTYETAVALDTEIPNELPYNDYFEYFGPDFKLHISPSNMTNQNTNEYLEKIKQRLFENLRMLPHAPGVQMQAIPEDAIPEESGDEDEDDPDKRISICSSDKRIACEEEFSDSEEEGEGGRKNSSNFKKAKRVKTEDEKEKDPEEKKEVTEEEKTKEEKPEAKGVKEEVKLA

Chain of Histone deacetylase 3/Nuclear receptor corepressor 2 (HDAC3/NCoR2) (O15379 whole entry, the tested form may be a part): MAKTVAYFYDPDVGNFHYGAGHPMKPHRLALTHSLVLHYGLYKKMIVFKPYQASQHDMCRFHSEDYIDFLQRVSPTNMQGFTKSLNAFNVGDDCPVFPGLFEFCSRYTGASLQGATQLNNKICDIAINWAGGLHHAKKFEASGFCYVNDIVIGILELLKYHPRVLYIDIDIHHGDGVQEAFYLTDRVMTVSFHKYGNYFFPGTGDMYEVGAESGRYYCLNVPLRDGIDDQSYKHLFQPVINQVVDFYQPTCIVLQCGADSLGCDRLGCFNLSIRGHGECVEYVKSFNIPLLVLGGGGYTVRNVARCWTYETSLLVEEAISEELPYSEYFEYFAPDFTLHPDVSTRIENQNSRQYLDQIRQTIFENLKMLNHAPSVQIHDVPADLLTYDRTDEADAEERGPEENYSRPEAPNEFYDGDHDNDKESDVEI
Chain of Histone deacetylase 3/Nuclear receptor corepressor 2 (HDAC3/NCoR2) (Q9Y618 whole entry, further chain, the tested form may be a part): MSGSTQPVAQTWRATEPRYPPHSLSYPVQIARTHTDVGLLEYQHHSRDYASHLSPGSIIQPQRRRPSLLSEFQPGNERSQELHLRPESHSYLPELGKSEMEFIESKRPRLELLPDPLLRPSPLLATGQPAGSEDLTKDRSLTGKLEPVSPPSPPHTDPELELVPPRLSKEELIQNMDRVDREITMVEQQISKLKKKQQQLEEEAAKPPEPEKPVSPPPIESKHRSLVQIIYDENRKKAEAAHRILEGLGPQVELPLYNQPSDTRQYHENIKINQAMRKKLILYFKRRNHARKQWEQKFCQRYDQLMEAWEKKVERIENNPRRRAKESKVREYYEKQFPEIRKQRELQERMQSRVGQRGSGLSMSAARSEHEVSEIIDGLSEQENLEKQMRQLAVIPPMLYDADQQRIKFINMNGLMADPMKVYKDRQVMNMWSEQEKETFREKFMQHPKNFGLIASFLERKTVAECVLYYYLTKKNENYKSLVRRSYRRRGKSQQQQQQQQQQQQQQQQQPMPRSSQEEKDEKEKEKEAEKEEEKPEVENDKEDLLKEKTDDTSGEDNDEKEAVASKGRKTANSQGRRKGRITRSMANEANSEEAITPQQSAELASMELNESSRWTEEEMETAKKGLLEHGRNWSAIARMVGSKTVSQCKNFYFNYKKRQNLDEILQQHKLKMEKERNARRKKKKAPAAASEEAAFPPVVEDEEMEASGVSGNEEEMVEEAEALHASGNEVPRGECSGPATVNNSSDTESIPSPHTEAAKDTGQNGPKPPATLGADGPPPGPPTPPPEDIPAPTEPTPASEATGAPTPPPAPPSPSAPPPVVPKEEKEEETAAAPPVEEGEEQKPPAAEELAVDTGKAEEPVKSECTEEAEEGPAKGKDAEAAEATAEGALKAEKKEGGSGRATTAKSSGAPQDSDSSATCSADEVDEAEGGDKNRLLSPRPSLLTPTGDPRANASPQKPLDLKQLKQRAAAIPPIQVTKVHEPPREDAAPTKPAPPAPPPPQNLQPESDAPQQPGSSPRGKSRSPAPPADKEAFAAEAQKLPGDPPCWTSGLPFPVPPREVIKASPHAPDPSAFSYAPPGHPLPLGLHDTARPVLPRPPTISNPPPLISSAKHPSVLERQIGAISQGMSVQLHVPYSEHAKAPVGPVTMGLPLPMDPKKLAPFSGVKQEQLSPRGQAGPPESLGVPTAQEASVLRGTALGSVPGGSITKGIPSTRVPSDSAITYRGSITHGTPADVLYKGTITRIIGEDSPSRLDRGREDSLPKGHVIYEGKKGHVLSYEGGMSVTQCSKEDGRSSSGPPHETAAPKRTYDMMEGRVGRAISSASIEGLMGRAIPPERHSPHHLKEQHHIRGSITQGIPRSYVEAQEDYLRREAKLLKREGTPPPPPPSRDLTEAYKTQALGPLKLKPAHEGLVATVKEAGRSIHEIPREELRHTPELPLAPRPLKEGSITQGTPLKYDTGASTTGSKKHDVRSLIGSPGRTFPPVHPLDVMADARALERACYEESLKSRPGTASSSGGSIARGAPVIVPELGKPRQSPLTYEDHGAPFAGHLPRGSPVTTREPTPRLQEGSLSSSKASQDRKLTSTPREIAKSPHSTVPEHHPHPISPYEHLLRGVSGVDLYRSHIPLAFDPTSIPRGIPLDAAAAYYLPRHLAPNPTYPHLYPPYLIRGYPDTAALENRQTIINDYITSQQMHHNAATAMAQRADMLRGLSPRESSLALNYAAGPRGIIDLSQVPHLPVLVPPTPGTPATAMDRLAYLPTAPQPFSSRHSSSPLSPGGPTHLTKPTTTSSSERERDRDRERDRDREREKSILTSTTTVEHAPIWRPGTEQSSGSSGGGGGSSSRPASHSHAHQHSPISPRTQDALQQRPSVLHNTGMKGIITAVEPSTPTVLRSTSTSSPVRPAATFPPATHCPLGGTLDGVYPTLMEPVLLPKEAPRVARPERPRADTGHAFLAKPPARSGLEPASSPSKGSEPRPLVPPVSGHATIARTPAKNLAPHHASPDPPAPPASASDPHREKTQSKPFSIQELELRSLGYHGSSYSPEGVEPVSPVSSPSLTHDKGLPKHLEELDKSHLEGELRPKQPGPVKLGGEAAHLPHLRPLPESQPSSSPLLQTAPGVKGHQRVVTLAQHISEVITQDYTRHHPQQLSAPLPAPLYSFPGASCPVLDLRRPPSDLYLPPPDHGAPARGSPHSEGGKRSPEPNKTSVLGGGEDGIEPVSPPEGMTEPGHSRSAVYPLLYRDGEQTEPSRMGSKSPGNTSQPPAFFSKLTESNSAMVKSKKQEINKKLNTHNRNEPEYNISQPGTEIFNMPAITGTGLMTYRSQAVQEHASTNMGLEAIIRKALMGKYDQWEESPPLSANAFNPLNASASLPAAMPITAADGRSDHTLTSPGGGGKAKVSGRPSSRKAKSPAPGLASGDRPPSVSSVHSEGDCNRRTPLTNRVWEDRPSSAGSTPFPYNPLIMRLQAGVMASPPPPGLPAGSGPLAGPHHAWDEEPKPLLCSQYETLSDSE
T1 sequence (P43490 whole entry): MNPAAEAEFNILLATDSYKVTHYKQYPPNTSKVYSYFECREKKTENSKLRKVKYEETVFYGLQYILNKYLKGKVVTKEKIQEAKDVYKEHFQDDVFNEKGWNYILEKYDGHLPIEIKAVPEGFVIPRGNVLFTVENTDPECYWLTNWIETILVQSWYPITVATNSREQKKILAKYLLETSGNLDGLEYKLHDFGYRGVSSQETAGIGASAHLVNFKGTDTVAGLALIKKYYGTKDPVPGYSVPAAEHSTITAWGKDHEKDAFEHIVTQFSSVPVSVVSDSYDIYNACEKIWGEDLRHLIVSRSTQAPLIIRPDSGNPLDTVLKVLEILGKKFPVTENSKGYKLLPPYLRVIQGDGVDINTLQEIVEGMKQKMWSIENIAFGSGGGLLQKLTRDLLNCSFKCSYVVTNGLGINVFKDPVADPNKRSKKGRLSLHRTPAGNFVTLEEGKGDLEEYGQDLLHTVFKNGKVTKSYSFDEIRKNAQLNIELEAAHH
Chain of Histone deacetylase 2 (Q92769 whole entry, the tested form may be a part): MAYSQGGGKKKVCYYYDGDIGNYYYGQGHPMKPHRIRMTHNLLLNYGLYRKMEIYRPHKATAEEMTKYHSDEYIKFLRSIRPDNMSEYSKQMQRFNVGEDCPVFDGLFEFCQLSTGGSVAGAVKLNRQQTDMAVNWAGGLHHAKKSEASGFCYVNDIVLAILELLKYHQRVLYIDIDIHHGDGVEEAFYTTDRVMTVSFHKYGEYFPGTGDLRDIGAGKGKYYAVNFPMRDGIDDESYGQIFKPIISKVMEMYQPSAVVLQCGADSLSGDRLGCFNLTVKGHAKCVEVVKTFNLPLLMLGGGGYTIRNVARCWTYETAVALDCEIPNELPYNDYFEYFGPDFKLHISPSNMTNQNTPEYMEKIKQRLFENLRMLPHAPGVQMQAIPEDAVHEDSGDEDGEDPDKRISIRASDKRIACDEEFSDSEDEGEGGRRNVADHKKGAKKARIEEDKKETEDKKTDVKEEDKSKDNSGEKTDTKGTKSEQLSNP

In [1], `Cc1ncsc1C(=O)N1CCC(CCCCNC(=O)c2cc3cnccc3[nH]2)CC1` showed an IC50 of 5 nM.
In the case of `CCCNNC(=O)c1ccc(CNC(=O)/C=C/c2ccccc2)cc1`, the GI50 in assay [2] turned out to be 16 nM; in [3] it was 121 nM. Further, the CC50 was greater than 100000 nM in assay [4]; greater than 100000 nM in assay [5]; greater than 100000 nM in assay [6]; greater than 100000 nM in [7]; 614 nM in [8]; 67.8 nM in [9].
Compound `CCCNNC(=O)c1ccc(CNC(=O)c2cc3ccccc3o2)cc1` came in with an IC50 in [10] of 0.43 nM.
As to `CCCNNC(=O)c1ccc(CNC(=O)c2cc3ccccc3[nH]2)cc1`, the 50% growth inhibitory concentration (GI50) in assay [2] was 37.3 nM; in [3] it was 69.6 nM. Moreover, the CC50 in assay [4] is 284 nM; in assay [5], greater than 100000 nM; in assay [6], greater than 100000 nM; in [7] it was greater than 100000 nM.
For `CCCNNC(=O)c1ccc(NC(=O)CCCCCCCNC(=O)/C=C/c2cccnc2)cc1`, the IC50 was greater than 20000 nM in assay [11] and 174 nM in assay [2].
Taken in the same sequence, the figures for `CCCNNC(=O)CCCCCCNC(=O)/C=C/c1cccnc1` were 261 nM and 434 nM.
As to `CCCNNC(=O)c1ccc(CNC(=O)CCCCCCCNC(=O)/C=C/c2cccnc2)cc1`, the results for the IC50 in assay [11] and in [2] were 489 nM and 2190 nM, respectively.
In the case of `CCCNNC(=O)c1ccc(CNC(=O)c2cc3cnccc3s2)cc1`, the 50% inhibitory concentration (IC50) in [10] came out at 2.01 nM.
Take `CCCNNC(=O)c1ccc(CNC(=O)CCCCCCNC(=O)/C=C/c2cccnc2)cc1`: the 50% inhibitory concentration (IC50) was 261 nM in assay [11] and 2240 nM in assay [2].
With `CCCNNC(=O)c1ccc(NC(=O)CCCCCCNC(=O)/C=C/c2cccnc2)cc1`, the results for the 50% inhibitory concentration (IC50) in assay [11] and in assay [2] were greater than 20000 nM and 52.4 nM, respectively.
Consider `CCCNNC(=O)CCNC(=O)/C=C/c1cccnc1`, for which the IC50 in assay [12] is greater than 10000 nM; in assay [11], greater than 20000 nM; in [2], greater than 50000 nM.
Take `CCCNNC(=O)c1ccc(CNC(=O)/C=C/c2ccncc2)cc1`: the 50% inhibitory concentration (IC50) in assay [11] is greater than 20000 nM; in [2], 67.7 nM.
Take `COC(=O)c1ccc(CNC(=O)c2cc3cnccc3[nH]2)cc1`: the IC50 in assay [13] was greater than 20000 nM; in assay [12], greater than 20000 nM; in [10], greater than 20000 nM; in [11] it was 6870 nM; in assay [2] it was greater than 50000 nM.
Turning to `CCCNNC(=O)CCCCNC(=O)/C=C/c1cccnc1`, the IC50 in assay [11] was greater than 20000 nM; in assay [2], 901 nM.
Take `CCCNNC(=O)c1ccc(CNC(=O)/C=C/c2ccccn2)cc1`: the IC50 in assay [11] was greater than 20000 nM; in assay [2], 85.2 nM.
`CCCNNC(=O)c1ccc(CNC(=O)c2cc3cnccc3o2)cc1`: the IC50 worked out at 5.5 nM in assay [13], 19.4 nM in assay [12] and 1.82 nM in [10].
`CCCNNC(=O)CCCCCCCNC(=O)/C=C/c1cccnc1`: the 50% inhibitory concentration (IC50) in [11] was greater than 20000 nM; in assay [2], 667 nM.
In turn, `CCCNNC(=O)CCCCCCNC(=O)c1cc2cnccc2[nH]1` gave a 50% inhibitory concentration (IC50) in assay [2] of 87.7 nM.
For `O=C(/C=C/c1cccnc1)NCCCCC1CCN(C(=O)c2ccccc2)CC1` [DAPORINAD], the IC50 in [13] is greater than 10000 nM; in assay [12], greater than 10000 nM; in assay [10], greater than 10000 nM; in assay [2] it was 15.3 nM. In addition, the GI50 in assay [3] was 12.1 nM.
`O=C(CCCCCCC(=O)Nc1ccccc1)NO` [VORINOSTAT]: in [11], the IC50 is greater than 20000 nM.
